# Data published in US10844058B2, “Valbenazine salts and polymorphs thereof” (Neurocrine Biosciences, Inc., priority 2015, dated 2020).
# Counter-ions that a name gives are not always drawn. Like-named read-outs stand apart in the source and are kept apart here.
# Tests used:
# Type in all cases: physicochemical
# [1] = Gravimetric vapour sorption (GVS); conditions: for XRPD pattern following the adsorption/desorption analysis: after GVS; for Stability to humidity GVS uptake: 25° C.
# Protocol: The Gravimetric sorption isotherms were obtained using a Hiden IGASorp moisture sorption analyser, controlled by CFRSorp software. The sample temperature was maintained at 25° C. by a Huber re-circulating water bath. The humidity was controlled by mixing streams of dry and wet nitrogen, with a total flow rate of 250 ml/min. The relative humidity (RH) was measured by a calibrated Vaisala RH probe (dynamic range of 0-95% RH), located near the sample. The weight change, (mass relaxation) of the sample as a function of % RH was constantly monitored by the microbalance (accuracy 0.001 mg). Typically 10-20 mg of sample was placed in a tared mesh stainless steel basket at room temperature. The sample was loaded and unloaded at 40% RH and 25° C. (typical room conditions). The standard isotherm was performed at 25° C. at 10% RH intervals over a 0-90% RH range.
# [2] = Phase equilibration between Form I and IV of Formula I (Example 13)
# Protocol: The suspensions of Form and IV from the equilibration studies were taken to 25° C.
# [3] = Form conversion on heating (VT-XRPD)
# Text: It is not clear whether a form change accompanies this loss of water, as the water is readily taken back up when the sample is returned to ambient RH.
# [4] = Thermodynamic aqueous solubility; conditions: for solubility at 24 h: water, 25 °C, thermodynamic from solid
# Protocol: The suspension was equilibrated at 25° C. for 24 hours then the pH was measured. The suspension was then filtered through a glass fibre C filter. […] Different volumes of the standard, diluted and undiluted sample solutions were injected.
# [5] = Phase equilibration between Form I, II and IV of Formula I (Example 12); conditions: slurried 13 days
# Protocol: About 10 mg of the mixture was then slurried in 200 μl of pre-saturated solvent at the desired temperatures for 13 days. The solids were then quickly filtered and analyzed by XRPD.
# [6] = Stability to humidity on storage (form by XRPD)
# [7] = relative humidity from about 0% to about 95%, di(4-methylbenzenesulfonate)
# [8] = relative humidity from about 0% to about 90%
smiles,measurement,setting,value
"COc1cc2c(cc1OC)[C@H]1C[C@@H](OC(=O)[C@@H](N)C(C)C)[C@H](CC(C)C)CN1CC2.Cc1ccc(S(=O)(=O)O)cc1.Cc1ccc(S(=O)(=O)O)cc1 [Form IV, (S)-(2R,3R,11bR)-3-isobutyl-9,10-dimethoxy-2,3,4,6,7,11b-hexahydro-1H-pyrido[2,1-a]isoquinolin-2-yl 2-amino-3-methylbutanoate di(4-methylbenzenesulfonate)]",Stability with respect to humidity,[1]; GVS,stable with respect to humidity
same,XRPD pattern following the adsorption/desorption analysis,[1]; di(4-methylbenzenesulfonate),substantially unchanged
same,GVS mass lost,[1]; relative humidity decreased between about 40 and 0% RH,1.8%
same,GVS mass increase,[1]; [7],about 3.4%
same,GVS mass increase,[1]; relative humidity from about 40% to about 95%,about 1.6%
same,Form conversion in suspension,"[2]; 25° C., overnight stirring",did not convert
same,Form conversion in suspension,[2]; heated to 30° C. for 2 days,conversion to Form I was then complete
same,Form conversion upon re-slurry,[2]; re-slurry at room temperature in acetonitrile,converts to Form I
same,Form conversion upon heating,[3]; heating at about 230° C.,converts to Form I
"COc1cc2c(cc1OC)[C@H]1C[C@@H](OC(=O)[C@@H](N)C(C)C)[C@H](CC(C)C)CN1CC2.Cc1ccc(S(=O)(=O)O)cc1.Cc1ccc(S(=O)(=O)O)cc1 [Form VI, (S)-(2R,3R,11bR)-3-isobutyl-9,10-dimethoxy-2,3,4,6,7,11b-hexahydro-1H-pyrido[2,1-a]isoquinolin-2-yl 2-amino-3-methylbutanoate di(4-methylbenzenesulfonate)]",Form conversion upon exposure to gravimetric vapour sorption analysis,[1],converts to Form V
same,XRPD pattern following the adsorption/desorption analysis,[1]; di(4-methylbenzenesulfonate),substantially changed
same,GVS mass lost,[1]; relative humidity decreased between about 15% and 0% RH,2.0%
same,GVS mass lost,[1]; relative humidity decreased between about 90% and 15% RH,1.2%
same,GVS mass increase,[1]; [8],about 3.1%
same,GVS mass increase,[1]; relative humidity from about 40% to about 80%,about 0.5%
same,GVS mass increase,[1]; relative humidity from about 80% to about 90%,about 3.1%
"COc1cc2c(cc1OC)[C@H]1C[C@@H](OC(=O)[C@@H](N)C(C)C)[C@H](CC(C)C)CN1CC2 [Form II of Formula II, (S)-(2R,3R,11bR)-3-isobutyl-9,10-dimethoxy-2,3,4,6,7,11b-hexahydro-1H-pyrido[2,1-a]isoquinolin-2-yl 2-amino-3-methylbutanoate dihydrochloride]",Aqueous solubility,"[4]; at pH 4.1, dihydrochloride",> 67 mg/mL free form equivalent
same,GVS mass loss,[1]; RH lowered to 0%,ca. 12%
same,Form conversion on heating (VT-XRPD),[3]; heating,no conversion to Form I on heating
same,Temperature at which the material becomes amorphous (VT-XRPD),[3]; no subsequent crystallization upon cooling,above 160 °C
"COc1cc2c(cc1OC)[C@H]1C[C@@H](OC(=O)[C@@H](N)C(C)C)[C@H](CC(C)C)CN1CC2.Cc1ccc(S(=O)(=O)O)cc1.Cc1ccc(S(=O)(=O)O)cc1 [Form V, (S)-(2R,3R,11bR)-3-isobutyl-9,10-dimethoxy-2,3,4,6,7,11b-hexahydro-1H-pyrido[2,1-a]isoquinolin-2-yl 2-amino-3-methylbutanoate di(4-methylbenzenesulfonate)]",XRPD pattern following the adsorption/desorption analysis,[1]; di(4-methylbenzenesulfonate),substantially unchanged
same,GVS mass lost,[1]; relative humidity decreased between about 20 and 0% RH,1.2%
same,GVS mass increase,[1]; relative humidity from about 10% to about 95%,about 1%
same,Form conversion upon heating,[3]; heating between about 110° C. and about 140° C.,converts to Form VI
"COc1cc2c(cc1OC)C1CC(OC(=O)C(N)C(C)C)C(CC(C)C)CN1CC2.Cc1ccc(S(=O)(=O)O)cc1.Cc1ccc(S(=O)(=O)O)cc1 (stereo not drawn) [Form I, II, and IV]",Form found by XRPD after equilibration,"[5]; Acetonitrile/2% water, 25° C.",Form I
same,Form found by XRPD after equilibration,"[5]; Acetonitrile/2% water, 50° C.",Form I
same,Form found by XRPD after equilibration,"[5]; Acetonitrile/5% water, 5° C.",Form IV
same,Form found by XRPD after equilibration,"[5]; Acetonitrile/5% water, 25° C.",Form I
same,Form found by XRPD after equilibration,"[5]; Acetonitrile/5% water, 50° C.",Form I
same,Form found by XRPD after equilibration,"[5]; Acetonitrile/10% water, 5° C.",Form IV
same,Form found by XRPD after equilibration,"[5]; Acetonitrile/10% water, 25° C.",Form I
same,Form found by XRPD after equilibration,"[5]; Acetonitrile/10% water, 50° C.",Form I
same,Form found by XRPD after equilibration,"[5]; Acetonitrile, 5° C.",Form I
same,Form found by XRPD after equilibration,"[5]; Acetonitrile, 25° C.",Form I
same,Form found by XRPD after equilibration,"[5]; Acetonitrile, 50° C.",Form I
Br [hydrobromide],Stability to humidity GVS uptake,[1],>3.9%
"COc1cc2c(cc1OC)[C@H]1C[C@@H](OC(=O)[C@@H](N)C(C)C)[C@H](CC(C)C)CN1CC2 [Form I of Formula II, (S)-(2R,3R,11bR)-3-isobutyl-9,10-dimethoxy-2,3,4,6,7,11b-hexahydro-1H-pyrido[2,1-a]isoquinolin-2-yl 2-amino-3-methylbutanoate dihydrochloride]",solubility at 24 h,"[4]; pH 4.1, water, at pH 4.1, read-out: Aqueous solubility",> 90 mg/mL
same,solubility at 24 h,"[4]; 25° C., 24 hours, at the pH of the next column, read-out: Aqueous solubility mg/mL free form",> 90 mg/mL
same,Stability to humidity GVS uptake,[1],15.2%
same,XRPD pattern following the adsorption/desorption analysis,[1]; dihydrochloride,substantially changed
same,GVS mass increase,[1]; [8],about 14%
same,Form after storage,[6]; 25° C./92% RH for seven days,change of form
same,Form after storage,[6]; 40° C./75% RH for seven days,change of form
COc1cc2c(cc1OC)C1CC(OC(=O)C(N)C(C)C)C(CC(C)C)CN1CC2.O=C(O)C(=O)O.O=C(O)C(=O)O (stereo not drawn) [oxalate],Stability to humidity GVS uptake,[1],0.8%
same,Stability to humidity 25° C./92% RH,[6]; 25° C./92% RH,unchanged
same,Stability to humidity 40° C./75% RH,[6]; 40° C./75% RH,unchanged
"COc1cc2c(cc1OC)[C@H]1C[C@@H](OC(=O)[C@@H](N)C(C)C)[C@H](CC(C)C)CN1CC2.Cc1ccc(S(=O)(=O)O)cc1.Cc1ccc(S(=O)(=O)O)cc1 [Form II, (S)-(2R,3R,11bR)-3-isobutyl-9,10-dimethoxy-2,3,4,6,7,11b-hexahydro-1H-pyrido[2,1-a]isoquinolin-2-yl 2-amino-3-methylbutanoate di(4-methylbenzenesulfonate)]",solubility at 24 h,"[4]; pH 5.1, water, at pH 5.1, read-out: aqueous solubility",~18.5 mg/mL
same,Hygroscopicity,[1]; GVS,substantially non-hygroscopic
same,Stability with respect to humidity,[1]; GVS,stable with respect to humidity
same,XRPD pattern following the adsorption/desorption analysis,[1]; di(4-methylbenzenesulfonate),substantially unchanged
same,GVS mass increase,[1]; [7],about 0.5%
